Laboratory results from patent US20110098288A1, “SULFONAMIDES AS ZAP-70 INHIBITORS” (priority 2008, published 2011).
Where a name gives a salt, the structure may show the parent alone.

biological target: T1, ZAP-70 (Homo sapiens, UniProt P43403); experiment: ZAP-70 kinobeads assay; format: binding; settings: competition with immobilized aminopyrido-pyrimidine ligand 24 in cell lysate; ZAP-70 detected by dot blot
T1 construct: endogenous in cells; host or cells: cell lysate
T1 sequence (P43403 1-619): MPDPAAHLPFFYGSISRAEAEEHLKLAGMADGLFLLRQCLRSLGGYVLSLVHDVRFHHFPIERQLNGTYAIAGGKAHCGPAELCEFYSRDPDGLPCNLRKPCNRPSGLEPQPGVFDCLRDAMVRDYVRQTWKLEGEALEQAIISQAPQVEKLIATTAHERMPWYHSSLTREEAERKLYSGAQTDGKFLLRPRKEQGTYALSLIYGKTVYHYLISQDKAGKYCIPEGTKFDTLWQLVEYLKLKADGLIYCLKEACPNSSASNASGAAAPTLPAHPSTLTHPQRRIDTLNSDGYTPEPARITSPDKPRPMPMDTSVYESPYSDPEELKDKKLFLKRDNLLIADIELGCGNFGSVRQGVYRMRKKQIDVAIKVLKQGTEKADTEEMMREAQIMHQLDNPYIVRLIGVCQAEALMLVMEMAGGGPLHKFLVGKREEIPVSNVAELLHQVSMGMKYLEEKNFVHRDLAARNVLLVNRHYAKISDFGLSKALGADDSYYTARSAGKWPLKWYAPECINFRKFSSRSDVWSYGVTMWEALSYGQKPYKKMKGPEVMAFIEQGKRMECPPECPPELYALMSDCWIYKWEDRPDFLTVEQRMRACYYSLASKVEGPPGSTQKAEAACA
Procedure: The compounds of the present invention as described in the previous examples can be tested in the ZAP-70 kinobeads assay as described (EP-A 1862802 and WO-A 2007/137867). Briefly, test compounds (at various concentrations) and the affinity matrix with the immobilized aminopyrido-pyrimidine ligand 24 are added to cell lysate aliquots and allowed to bind to the proteins in the lysate sample. After the incubation time the beads with captured proteins are separated from the lysate. Bound proteins are then eluted and the presence ZAP-70 is detected and quantified using a specific antibody in a dot blot procedure and the Odyssey infrared detection system. Conventionally, ZAP-70 kinase activity can be measured using purified or recombinant enzyme in a solution-based assay with protein or peptide substrates (Isakov et al., 1996, J. Biol. Chem. 271(26), 15753-15761; Moffat et al., 1999, Bioorg. Med. Chem. Letters 9, 3351-3356).

Structure (SMILES)	IC50
Cc1ccc(C)n1-c1cccc(Nc2ncc(F)c(Nc3ccccc3NS(C)(=O)=O)n2)c1 [Example 202, N-(2-(2-(3-(2,5-dimethyl-1H-pyrrol-1-yl)phenylamino)-5-fluoropyrimidin-4-ylamino)phenyl)methanesulfonamide]	1000 to 10000 nM
COc1cc(Nc2ncc([N+](=O)[O-])c(Nc3ccccc3NS(C)(=O)=O)n2)cc(OC)c1OC [Example 68, N-(2-(5-nitro-2-(3,4,5-trimethoxyphenylamino)pyrimidin-4-ylamino)phenyl)methanesulfonamide]	1000 to 10000 nM
CS(=O)(=O)Nc1ccccc1Nc1nc(Nc2cccc(OCCC3CCCN3)c2)ncc1Cl (stereo not shown) [Example 131, N-(2-(5-chloro-2-(3-(2-(pyrrolidin-2-yl)ethoxy)phenylamino)pyrimidin-4-ylamino)phenyl)methanesulfonamide]	< 100 nM
CCN(c1ccccc1Nc1nc(Nc2ccc(OCCN3CCOCC3)cc2)ncc1F)S(C)(=O)=O [Example 159, N-ethyl-N-(2-(5-fluoro-2-(4-(2-morpholinoethoxy)phenylamino)pyrimidin-4-ylamino)phenyl)methanesulfonamide]	100 to 1000 nM
CN(c1ccccc1Nc1nc(Nc2ccc(OCCN3CCOCC3)cc2)ncc1F)S(C)(=O)=O [Example 111, N-(2-(5-fluoro-2-(4-(2-morpholinoethoxy)phenylamino)pyrimidin-4-ylamino)phenyl)-N-methylmethanesulfonamide]	100 to 1000 nM
COc1cc(Nc2ncc(F)c(Nc3cccc(C)c3NS(C)(=O)=O)n2)cc(OCC(C)C)c1OC [Example 119, N-(2-(5-fluoro-2-(3-isobutoxy-4,5-dimethoxyphenylamino)pyrimidin-4-ylamino)-6-methylphenyl)methanesulfonamide]	100 to 1000 nM
Cc1nc(-c2ccc(Nc3ncc(F)c(Nc4ccccc4NS(C)(=O)=O)n3)cc2)cs1 [Example 192, N-(2-(5-fluoro-2-(4-(2-methylthiazol-4-yl)phenylamino)pyrimidin-4-ylamino)phenyl)methanesulfonamide]	1000 to 10000 nM
Cc1cccc(Nc2nc(Nc3cccc(OC(C)C)c3)ncc2F)c1NS(C)(=O)=O [Example 121, N-(2-(5-fluoro-2-(3-isopropoxyphenylamino)pyrimidin-4-ylamino)-6-methylphenyl)methanesulfonamide]	1000 to 10000 nM
Cc1nnnn1-c1cccc(Nc2ncc(F)c(Nc3ccccc3NS(C)(=O)=O)n2)c1 [Example 194, N-(2-(5-fluoro-2-(3-(5-methyl-1H-tetrazol-1-yl)phenylamino)pyrimidin-4-ylamino)phenyl)methanesulfonamide]	1000 to 10000 nM
Cc1nc(-c2ccc(Nc3ncc(F)c(Nc4ccccc4NS(C)(=O)=O)n3)cc2)no1 [Example 197, N-(2-(5-fluoro-2-(4-(5-methyl-1,2,4-oxadiazol-3-yl)phenylamino)pyrimidin-4-ylamino)phenyl)methanesulfonamide]	1000 to 10000 nM
Cc1n[nH]c(-c2cccc(Nc3ncc(Cl)c(Nc4ccccc4NS(C)(=O)=O)n3)c2)n1 [Example 213, N-(2-(5-chloro-2-(3-(3-methyl-1H-1,2,4-triazol-5-yl)phenylamino)pyrimidin-4-ylamino)phenyl)methanesulfonamide]	100 to 1000 nM
CS(=O)(=O)Nc1ccccc1Nc1nc(Nc2cccc(-n3cnnn3)c2)ncc1F [Example 188, N-(2-(2-(3-(1H-tetrazol-1-yl)phenylamino)-5-fluoropyrimidin-4-ylamino)phenyl)methanesulfonamide]	1000 to 10000 nM
CCN(c1ccccc1Nc1nc(Nc2ccc(OC)c(OC)c2)ncc1F)S(C)(=O)=O [Example 157, N-(2-(2-(3,4-dimethoxyphenylamino)-5-fluoropyrimidin-4-ylamino)phenyl)-N-ethylmethanesulfonamide]	1000 to 10000 nM
Cn1ccc(-c2cccc(Nc3ncc(F)c(Nc4ccccc4NS(C)(=O)=O)n3)c2)n1 [Example 201, N-(2-(5-fluoro-2-(3-(1-methyl-1H-pyrazol-3-yl)phenylamino)pyrimidin-4-ylamino)phenyl)methanesulfonamide]	1000 to 10000 nM
CC(C)OC(=O)COc1ccc(Nc2ncc(Cl)c(Nc3ccccc3NS(C)(=O)=O)n2)cc1 [Example 143, Isopropyl 2-(4-(5-chloro-4-(2-(methylsulfonamido)phenylamino)pyrimidin-2-ylamino)-phenoxy)acetate hydrochloride]	100 to 1000 nM
COc1cc(Nc2ncc(F)c(Nc3cc(C)cc(C)c3NS(C)(=O)=O)n2)cc(OC)c1OC [Example 186, N-(2-(5-fluoro-2-(3,4,5-trimethoxyphenylamino)pyrimidin-4-ylamino)-4,6-dimethylphenyl)methanesulfonamide]	1000 to 10000 nM
COc1cc(Nc2ncc(F)c(Nc3cccc(NS(=O)(=O)CC(F)(F)F)c3)n2)cc(OC)c1OC [Example 60, 2,2,2-trifluoro-N-(3-(5-fluoro-2-(3,4,5-trimethoxyphenylamino)pyrimidin-4-ylamino)phenyl)ethanesulfonamide]	1000 to 10000 nM
CCN(c1ccccc1Nc1nc(Nc2cc(C)cc(C)c2)ncc1F)S(C)(=O)=O [Example 155, N-(2-(2-(3,5-dimethylphenylamino)-5-fluoropyrimidin-4-ylamino)phenyl)-N-ethylmethanesulfonamide]	1000 to 10000 nM
COc1cc(Nc2ncc(F)c(Nc3ccccc3NS(C)(=O)=O)n2)cc(OCCN2CCCC2)c1OC [Example 74, N-(2-(2-(3,4-dimethoxy-5-(2-(pyrrolidin-1-yl)ethoxy)phenylamino)-5-fluoropyrimidin-4-ylamino)phenyl)methanesulfonamide]	100 to 1000 nM
CS(=O)(=O)Nc1ccccc1Nc1nc(Nc2ccc(-n3cncn3)cc2)ncc1F [Example 198, N-(2-(2-(4-(1H-1,2,4-triazol-1-yl)phenylamino)-5-fluoropyrimidin-4-ylamino)phenyl)methanesulfonamide]	100 to 1000 nM
CCN(c1ccccc1Nc1nc(Nc2ccc(OC)cc2)ncc1F)S(C)(=O)=O [Example 156, N-ethyl-N-(2-(5-fluoro-2-(4-methoxyphenylamino)pyrimidin-4-ylamino)phenyl)methanesulfonamide]	100 to 1000 nM
COc1cc(Nc2ncc(F)c(Nc3ccc(OCCCN4CCCCC4)cc3NS(C)(=O)=O)n2)cc(OC)c1OC [Example 185, N-(2-(5-fluoro-2-(3,4,5-trimethoxyphenylamino)pyrimidin-4-ylamino)-5-(3-(piperidin-1-yl)propoxy)phenyl)methanesulfonamide]	100 to 1000 nM
CS(=O)(=O)Nc1ccccc1Nc1nc(Nc2cccc(OC(F)F)c2)ncc1Br [Example 103, N-(2-(5-bromo-2-(3-(difluoromethoxy)phenylamino)pyrimidin-4-ylamino)phenyl)methanesulfonamide]	100 to 1000 nM
Cc1nnnn1-c1ccc(Nc2ncc(F)c(Nc3ccccc3NS(C)(=O)=O)n2)cc1 [Example 199, N-(2-(5-fluoro-2-(4-(5-methyl-1H-tetrazol-1-yl)phenylamino)pyrimidin-4-ylamino)phenyl)methanesulfonamide]	100 to 1000 nM
COc1cc(Nc2ncc(F)c(Nc3cccc(NS(=O)(=O)CCN(C)C)c3)n2)cc(OC)c1OC [Example 65, 2-(Dimethylamino)-N-(3-(5-fluoro-2-(3,4,5-trimethoxyphenylamino)pyrimidin-4-ylamino)phenyl)ethanesulfonamide]	1000 to 10000 nM
